# Source: BindingDB's records for doi:10.1021/acs.jmedchem.9b01169 (Boehringer Ingelheim Rcv, 2019)
# pIC50: −log10 of the molar value.
# Assay: Inhibition of wild type EGFR in mouse BAF3 cells assessed as reduction in cell proliferation incubated for 72 hrs by Celltiter-Glo luminescent cell viability assay
row,SMILES,pIC50
1,Cc1cc2cc(n1)-c1cnn(C)c1OCCC[C@@H](C)CN1/C(=N/C2=O)Nc2ccccc21,5.96
2,COc1ccncc1-c1cc(C(=O)/N=c2\[nH]c3ccccc3n2CC(C)(C)O)ccn1,6.15
3,Cn1ncc2c1OCCCCCN1/C(=N/C(=O)c3cc(F)nc-2c3)Nc2ccccc21,6.57
4,CC(C)(O)Cn1/c(=N/C(=O)c2ccnc(-c3ccccc3)c2)[nH]c2ccccc21,< 5.00
5,O=C1/N=C2\Nc3ccccc3N2CCCCCOc2ccccc2-c2cc1ccn2,5.89
6,Cc1cc2cc(n1)-c1cnn(C)c1OCCCCCN1/C(=N/C2=O)Nc2ccccc21,5.64
7,Cn1cc(-c2cc(C(=O)/N=c3\[nH]c4ccccc4n3CC(C)(C)O)ccn2)cn1,5.29
